Data from PubChem BioAssay (NCI).
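Step 1: Grow cells in 96-well plates. Step 2: Expose to compound for 48 hours at 5 concentrations. Step 3: Interpolate endpoints linearly; if unreached, use highest concentration. The concentration for 50% growth inhibition is given as GI50. TGI: concentration producing complete growth inhibition.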

How the values were obtained:
Test in all cases: inhibition of tumour cell growth, NCI panel, 48 h
[1] = test system: HT29 colon
[2] = test system: EKVX NSCLC
[3] = test system: RPMI-8226 leukemia
[4] = test system: OVCAR-3 ovarian
[5] = test system: SF-295 CNS
[6] = test system: UO-31 renal
[7] = test system: SR leukemia
[8] = test system: MALME-3M melanoma
[9] = test system: CCRF-CEM leukemia
[10] = test system: IGROV1 ovarian
[11] = test system: SK-OV-3 ovarian
[12] = test system: HS 578T breast
[13] = test system: HOP-92 NSCLC
[14] = test system: MOLT-4 leukemia
[15] = test system: HL-60(TB) leukemia
[16] = test system: HCT-116 colon
[17] = test system: M14 melanoma
[18] = test system: 786-0 renal
[19] = test system: COLO 205 colon
[20] = test system: MDA-MB-231 breast
[21] = test system: PC-3 prostate
[22] = test system: TK-10 renal
[23] = test system: MDA-MB-435
[24] = test system: NCI-H460 lung
[25] = test system: SN12C renal
[26] = test system: SNB-75 CNS
[27] = test system: OVCAR-8 ovarian
[28] = test system: SK-MEL-28 melanoma
[29] = test system: SNB-19 CNS
[30] = test system: NCI-H23 lung
[31] = test system: A549 NSCLC
[32] = test system: SW-620 colon
[33] = test system: RXF 393 renal
[34] = test system: NCI-H226 lung
[35] = test system: SF-268 CNS
[36] = test system: T-47D breast
[37] = test system: SK-MEL-5 melanoma
[38] = test system: LOX IMVI melanoma
[39] = test system: U251 CNS
[40] = test system: HCC-2998 colon
[41] = test system: UACC-257 melanoma
[42] = test system: OVCAR-4 ovarian
[43] = test system: HCT-15 colon
[44] = test system: MCF7 breast
[45] = test system: BT-549 breast
[46] = test system: OVCAR-5 ovarian
[47] = test system: HOP-62 NSCLC
[48] = test system: SK-MEL-2 melanoma
[49] = test system: NCI/ADR-RES ovarian
[50] = test system: A498 renal
[51] = test system: ACHN renal
[52] = test system: KM12 colon
[53] = test system: K-562 leukemia
[54] = test system: SF-539 CNS
[55] = test system: NCI-H522 lung
[56] = test system: CAKI-1 renal
[57] = test system: DU-145 prostate
[58] = test system: UACC-62 melanoma

For `Cc1nn(-c2ccccc2)c2nc(C)n(-c3ccc(Br)cc3)c(=O)c12`, the GI50 [1] was 355 nM, the TGI [1] was > 31.6 µM and the GI50 [2] was 822 nM. For the same compound, the TGI [2] was > 100 µM, the GI50 [3] was 571 nM and the TGI [3] was > 54.6 µM. The GI50 [4] was 405 nM, the TGI [4] was > 36.7 µM and the GI50 [5] was 357 nM. The GI50 [6] was 631 nM, the TGI [6] was 36.7 µM and the GI50 [7] was 439 nM. For the same compound, the TGI [7] was > 100 µM, the GI50 [8] was 12.1 µM and the TGI [8] was 76.9 µM. For the same compound, the GI50 [9] was 411 nM, the TGI [9] was > 100 µM and the GI50 [10] was 584 nM. The TGI [10] was > 100 µM, the GI50 [11] was 1280 nM and the TGI [11] was > 100 µM. For the same compound, the GI50 [12] was 371 nM, the TGI [12] was > 100 µM and the GI50 [13] was 579 nM. The TGI [13] was 68 µM, the GI50 [14] was 530 nM and the TGI [14] was > 100 µM. For the same compound, the GI50 [15] was 286 nM, the TGI [15] was 3.07 µM and the GI50 [16] was 425 nM. The TGI [16] was > 65.4 µM, the GI50 [17] was 429 nM and the TGI [17] was > 100 µM. For the same compound, the GI50 [18] was 542 nM, the TGI [18] was > 100 µM and the GI50 [19] was 549 nM. For the same compound, the TGI [19] was 18.4 µM, the GI50 [20] was 1450 nM and the TGI [20] was > 100 µM. For the same compound, the GI50 [21] was 475 nM, the TGI [21] was > 100 µM and the GI50 [22] was 5.53 µM. The TGI [22] was > 100 µM, the GI50 [23] was 226 nM and the TGI [23] was 684 nM. For the same compound, the GI50 [24] was 451 nM, the TGI [24] was > 39.1 µM and the GI50 [25] was 721 nM. For the same compound, the TGI [25] was > 100 µM, the GI50 [26] was 181 nM and the TGI [26] was 725 nM. For the same compound, the GI50 [27] was 965 nM, the TGI [27] was > 100 µM and the GI50 [28] was 3.46 µM. For the same compound, the TGI [28] was > 100 µM, the GI50 [29] was 547 nM and the TGI [29] was > 100 µM. For the same compound, the GI50 [30] was 823 nM, the TGI [30] was > 100 µM and the GI50 [31] was 927 nM. For the same compound, the TGI [31] was > 100 µM, the GI50 [32] was 353 nM and the TGI [32] was > 100 µM. The GI50 [33] was 286 nM, the TGI [33] was 972 nM and the GI50 [34] was 1010 nM. For the same compound, the TGI [34] was > 100 µM, the GI50 [35] was 2330 nM and the TGI [35] was > 100 µM. The GI50 [36] was 427 nM, the TGI [36] was > 70.5 µM and the GI50 [37] was 516 nM. The TGI [37] was 11.1 µM, the GI50 [38] was 510 nM and the TGI [38] was > 100 µM. The GI50 [39] was 479 nM, the TGI [39] was > 100 µM and the GI50 [40] was 1610 nM. The TGI [40] was > 100 µM, the GI50 [41] was 768 nM and the TGI [41] was > 100 µM. For the same compound, the GI50 [42] was 1560 nM, the TGI [42] was > 100 µM and the GI50 [43] was 416 nM. For the same compound, the TGI [43] was > 100 µM, the GI50 [44] was 356 nM and the TGI [44] was > 100 µM. The GI50 [45] was 688 nM, the TGI [45] was 67.3 µM and the GI50 [46] was 1990 nM. For the same compound, the TGI [46] was > 100 µM, the GI50 [47] was 678 nM and the TGI [47] was > 100 µM. The GI50 [48] was 654 nM, the TGI [48] was > 100 µM and the GI50 [49] was 449 nM. The TGI [49] was > 100 µM, the GI50 [50] was 219 nM and the TGI [50] was 816 nM. The GI50 [51] was 584 nM, the TGI [51] was > 100 µM and the GI50 [52] was 521 nM. For the same compound, the TGI [52] was > 100 µM, the GI50 [53] was 302 nM and the TGI [53] was > 100 µM. The GI50 [54] was 350 nM, the TGI [54] was 7.09 µM and the GI50 [55] was 326 nM. For the same compound, the TGI [55] was 18.6 µM, the GI50 [56] was 416 nM and the TGI [56] was > 100 µM. For the same compound, the GI50 [57] was 1440 nM, the TGI [57] was > 100 µM and the GI50 [58] was 428 nM. For the same compound, the TGI [58] was > 100 µM.
